Laboratory results reported in US20260217765A1, “NOVEL ANTIMICROBIAL PEPTIDE DESIGNED FROM DUCK-DERIVED ANTIMICROBIAL PEPTIDE ANDUSE THEREOF” (INDUSTRY-ACADEMIC COOPERATION FOUNDATION, CHOSUN UNIVERSITY, priority 2023, published 2026).
≈ marks a conversion by molar mass, not a printed value. Peptide text beside a SMILES is read from it.

What was measured:
[1] = test system: Staphylococcus aureus ATCC 25923; format: cell-based; conditions: for MIC: ATCC 25923
Excerpt: (§1) To compare the antimicrobial activity of the peptides prepared in <Example 1>, the minimum inhibitory concentration (MIC), […] measured. Here, the minimal inhibitory concentration (MIC) refers to the lowest concentration of a substance that prevents visible bacterial growth.
(§2) Specifically, the bacterial strains listed in Table 2 below were obtained and cultured in media suitable for each strain until the mid-log phase. The cultures were then diluted to a concentration of 2×10^4 cells/100 μL and prepared in microtiter plates (Nunc, USA). Subsequently, serial 2-fold dilutions of the peptides prepared in Example 1 were prepared, and 10 μL of each dilution was added to the wells, and the plates were incubated at 37° C. for 18 hours. Absorbance at 600 nm was measured using a microtiter plate reader (Merck ELISA reader, Germany) to determine the MIC values for each bacterial strain. The parent peptide dCATH was used as a control.

[2] = test system: Acinetobacter baumannii KCTC 1017; format: cell-based; conditions: for MIC: KCTC 1017
Excerpt: as §1, §2

[3] = test system: Escherichia coli ATCC 25922; format: cell-based
Excerpt: as §1, §2

[4] = test system: Bacillus cereus KCTC 2508; format: cell-based
Excerpt: as §1, §2

[5] = test system: Pseudomonas aeruginosa ATCC 27853; format: cell-based
Excerpt: as §1, §2

[6] = test system: Listeria monocytogenes KCTC 3710; format: cell-based
Excerpt: as §1, §2

in vitro = format: cell-based; conditions: human, HaCaT keratinocyte cells, Cell Viability
Experimental: To evaluate the cytotoxicity of the peptides prepared in <Example 1>, toxicity was measured using a human keratinocyte cell line (HaCaT cell line, Dr. N. E. Fusenig, Heidelberg, Germany).
Specifically, HaCaT cells cultured in DMEM medium containing 10% fetal bovine serum (FBS) were seeded at a density of 2×10^5 cells/well into a microtiter plate and incubated for 24 hours. Then, peptides dCATH, dCATH-A1, dCATH-A2, dCATH-A3, dCATH-A4, dCATH-A5, dCATH-A6, and dCATH-A7 were added to each well at concentrations of 3.13, 6.25, 12.5, 25.0, 50.0, and 100.0 μM/well, followed by incubation for 24 hours in a 5% CO2 incubator. After 24 hours, 100 μL of a reaction solution containing 0.5 mg/mL MTT (Thiazolyl Blue Tetrazolium Bromide) dissolved in phosphate-buffered saline (PBS) was added to each well and reacted for 4 hours. After removing the supernatant, 200 μL of DMSO (dimethyl sulfoxide) was added to dissolve the formed MTT crystals, and absorbance at 570 nm was measured to determine cell viability.

[7] = test system: Acinetobacter baumannii_isolate 26 (antibiotic-resistant); format: cell-based, Acinetobacter baumannii; conditions: isolate 26 (antibiotic-resistant)
Excerpt: as §1, §2

[8] = test system: Acinetobacter baumannii_isolate 17 (antibiotic-resistant); format: cell-based, Acinetobacter baumannii; conditions: isolate 17 (antibiotic-resistant)
Excerpt: as §1, §2

[9] = test system: Acinetobacter baumannii_isolate 24 (antibiotic-resistant); format: cell-based, Acinetobacter baumannii; conditions: isolate 24 (antibiotic-resistant)
Excerpt: as §1, §2

[10] = test system: Acinetobacter baumannii_isolate 23 (antibiotic-resistant); format: cell-based, Acinetobacter baumannii; conditions: isolate 23 (antibiotic-resistant)
Excerpt: as §1, §2

[11] = test system: Acinetobacter baumannii_isolate 1 (antibiotic-resistant); format: cell-based, Acinetobacter baumannii; conditions: isolate 1 (antibiotic-resistant)
Excerpt: as §1, §2

[12] = test system: Acinetobacter baumannii_isolate 6 (antibiotic-resistant); format: cell-based, Acinetobacter baumannii; conditions: isolate 6 (antibiotic-resistant)
Excerpt: as §1, §2

[13] = test system: Acinetobacter baumannii_isolate 18 (antibiotic-resistant); format: cell-based, Acinetobacter baumannii; conditions: isolate 18 (antibiotic-resistant)
Excerpt: as §1, §2

[14] = test system: Acinetobacter baumannii_isolate 8 (antibiotic-resistant); format: cell-based, Acinetobacter baumannii; conditions: isolate 8 (antibiotic-resistant)
Excerpt: as §1, §2

[15] = test system: Acinetobacter baumannii_isolate15 (antibiotic-resistant); format: cell-based, Acinetobacter baumannii; conditions: isolate15 (antibiotic-resistant)
Excerpt: as §1, §2

[16] = test system: Acinetobacter baumannii_isolate 2 (antibiotic-resistant); format: cell-based, Acinetobacter baumannii; conditions: isolate 2 (antibiotic-resistant)
Excerpt: as §1, §2

[17] = test system: Acinetobacter baumannii_isolate 9 (antibiotic-resistant); format: cell-based, Acinetobacter baumannii; conditions: isolate 9 (antibiotic-resistant)
Excerpt: as §1, §2

[18] = test system: Acinetobacter baumannii_isolate 14 (antibiotic-resistant); format: cell-based, Acinetobacter baumannii; conditions: isolate 14 (antibiotic-resistant)
Excerpt: as §1, §2

[19] = test system: Acinetobacter baumannii_isolate21 (antibiotic-resistant); format: cell-based, Acinetobacter baumannii; conditions: isolate21 (antibiotic-resistant)
Excerpt: as §1, §2

[20] = test system: Acinetobacter baumannii_isolate 5 (antibiotic-resistant); format: cell-based, Acinetobacter baumannii; conditions: isolate 5 (antibiotic-resistant)
Excerpt: as §1, §2

[21] = test system: Acinetobacter baumannii_isolate 19 (antibiotic-resistant); format: cell-based, Acinetobacter baumannii; conditions: isolate 19 (antibiotic-resistant)
Excerpt: as §1, §2

[22] = test system: Acinetobacter baumannii_isolate11 (antibiotic-resistant); format: cell-based, Acinetobacter baumannii; conditions: isolate11 (antibiotic-resistant)
Excerpt: as §1, §2

[23] = test system: Acinetobacter baumannii_isolate 7 (antibiotic-resistant); format: cell-based, Acinetobacter baumannii; conditions: isolate 7 (antibiotic-resistant)
Excerpt: as §1, §2

[24] = test system: Acinetobacter baumannii_isolate 13 (antibiotic-resistant); format: cell-based, Acinetobacter baumannii; conditions: isolate 13 (antibiotic-resistant)
Excerpt: as §1, §2

[25] = test system: Acinetobacter baumannii_isolate16 (antibiotic-resistant); format: cell-based, Acinetobacter baumannii; conditions: isolate16 (antibiotic-resistant)
Excerpt: as §1, §2

Compound | MIC [1] | MIC [2] | MIC [3] | MIC [4] | MIC [5] | MIC [6] | viability at 24 h, 3.13 µM (in vitro) | viability at 24 h, 6.25 µM (in vitro) | viability at 24 h, 12.5 µM (in vitro) | viability at 24 h, 25 µM (in vitro) | viability at 24 h, 50 µM (in vitro) | viability at 24 h, 100 µM (in vitro) | MIC [7] | MIC [8] | MIC [9] | MIC [10] | MIC [11] | MIC [12] | MIC [13] | MIC [14] | further results
CC[C@H](C)[C@H](NC(=O)[C@H](C)NC(=O)[C@H](CCCCN)NC(=O)[C@H](CCCCN)NC(=O)[C@@H](NC(=O)[C@H](CC(C)C)NC(=O)[C@H](CCC(N)=O)NC(=O)[C@H](C)NC(=O)[C@H](C)NC(=O)[C@H](CCCNC(=N)N)NC(=O)[C@@H](N)CCCCN)C(C)C)C(=O)N[C@@H](CCCCN)C(=O)N[C@@H](CCCCN)C(=O)N[C@@H](Cc1ccc(O)cc1)C(=O)N[C@@H](CCCNC(=N)N)C(=O)N[C@@H](C)C(=O)N[C@@H](Cc1c[nH]c2ccccc12)C(=O)N[C@@H](CCCCN)C(=O)N[C@@H](CCCNC(=N)N)C(=O)N[C@@H](CCCNC(=N)N)C(N)=O [dCATH-A6] (H-KRAAQLVKKAIKKYRAWKRR-NH2; N-terminus assumed) | 0.5 µM (≈ 1.25 µg/mL) | 1 µM (≈ 2.5 µg/mL) | 2 µM (≈ 5 µg/mL) | 2 µM (≈ 5 µg/mL) | 2 µM (≈ 5 µg/mL) | 2 µM (≈ 5 µg/mL) | 98.9% | 100% | 94.7% | 98% | 97.8% | 92% | 2 µM (≈ 5 µg/mL) | 1 µM (≈ 2.5 µg/mL) | 1 µM (≈ 2.5 µg/mL) | 1 µM (≈ 2.5 µg/mL) | 1 µM (≈ 2.5 µg/mL) | 2 µM (≈ 5 µg/mL) | 1 µM (≈ 2.5 µg/mL) | 1 µM (≈ 2.5 µg/mL) | antimicrobial activity compared to the control peptide dCATH ([1]; against Staphylococcus aureus strains): notably superior activity; antimicrobial activity compared to the control peptide dCATH ([2]; against Acinetobacter baumannii): significantly superior antimicrobial activity; MIC [15]: 1 µM (≈ 2.5 µg/mL); MIC [16]: 2 µM (≈ 5 µg/mL); MIC [17]: 1 µM (≈ 2.5 µg/mL); MIC [18]: 2 µM (≈ 5 µg/mL); MIC [19]: 1 µM (≈ 2.5 µg/mL); MIC [20]: 1 µM (≈ 2.5 µg/mL); MIC [21]: 1 µM (≈ 2.5 µg/mL); MIC [22]: 1 µM (≈ 2.5 µg/mL); MIC [23]: 1 µM (≈ 2.5 µg/mL); MIC [24]: 1 µM (≈ 2.5 µg/mL); MIC [25]: 1 µM (≈ 2.5 µg/mL)
CC[C@H](C)[C@H](NC(=O)[C@H](C)NC(=O)[C@H](CC(C)C)NC(=O)[C@@H]1CCCN1C(=O)[C@@H](NC(=O)[C@H](CC(C)C)NC(=O)[C@H](CCC(N)=O)NC(=O)[C@H](Cc1c[nH]c2ccccc12)NC(=O)[C@H](C)NC(=O)[C@H](CCCNC(=N)N)NC(=O)[C@@H](N)CCCCN)C(C)C)C(=O)N[C@@H](CCCCN)C(=O)N[C@H](C(=O)N[C@@H](Cc1ccc(O)cc1)C(=O)N[C@@H](CCCNC(=N)N)C(=O)N[C@@H](C)C(=O)N[C@@H](Cc1c[nH]c2ccccc12)C(=O)N[C@@H](CCCCN)C(=O)N[C@@H](CCCNC(=N)N)C(=O)N[C@@H](CCCNC(=N)N)C(N)=O)[C@@H](C)CC [dCATH-A1] (H-KRAWQLVPLAIKIYRAWKRR-NH2; N-terminus assumed) | 2 µM (≈ 5.1 µg/mL) | 2 µM (≈ 5.1 µg/mL) | 2 µM (≈ 5.1 µg/mL) | 2 µM (≈ 5.1 µg/mL) | 4 µM (≈ 10.2 µg/mL) | 2 µM (≈ 5.1 µg/mL) | 100% | 100% | 97.9% | 30% | 0.81% | 1.79% | 2 µM (≈ 5.1 µg/mL) | 1 µM (≈ 2.55 µg/mL) | 2 µM (≈ 5.1 µg/mL) | 1 µM (≈ 2.55 µg/mL) | 2 µM (≈ 5.1 µg/mL) | 2 µM (≈ 5.1 µg/mL) | 2 µM (≈ 5.1 µg/mL) | 2 µM (≈ 5.1 µg/mL) | MIC [15]: 2 µM (≈ 5.1 µg/mL); MIC [16]: 2 µM (≈ 5.1 µg/mL); MIC [17]: 2 µM (≈ 5.1 µg/mL); MIC [18]: 2 µM (≈ 5.1 µg/mL); MIC [19]: 2 µM (≈ 5.1 µg/mL); MIC [20]: 2 µM (≈ 5.1 µg/mL); MIC [21]: 1 µM (≈ 2.55 µg/mL); MIC [22]: 2 µM (≈ 5.1 µg/mL); MIC [23]: 2 µM (≈ 5.1 µg/mL); MIC [24]: 2 µM (≈ 5.1 µg/mL); MIC [25]: 2 µM (≈ 5.1 µg/mL)
CC[C@H](C)[C@H](NC(=O)[C@H](C)NC(=O)[C@H](CC(C)C)NC(=O)[C@H](CCCCN)NC(=O)[C@@H](NC(=O)[C@H](CC(C)C)NC(=O)[C@H](CCC(N)=O)NC(=O)[C@H](C)NC(=O)[C@H](C)NC(=O)[C@H](CCCNC(=N)N)NC(=O)[C@@H](N)CCCCN)C(C)C)C(=O)N[C@@H](CCCCN)C(=O)N[C@H](C(=O)N[C@@H](Cc1ccc(O)cc1)C(=O)N[C@@H](CCCNC(=N)N)C(=O)N[C@@H](C)C(=O)N[C@@H](Cc1c[nH]c2ccccc12)C(=O)N[C@@H](CCCCN)C(=O)N[C@@H](CCCNC(=N)N)C(=O)N[C@@H](CCCNC(=N)N)C(N)=O)[C@@H](C)CC [dCATH-A4] (H-KRAAQLVKLAIKIYRAWKRR-NH2; N-terminus assumed) | 2 µM (≈ 4.94 µg/mL) | 2 µM (≈ 4.94 µg/mL) | 2 µM (≈ 4.94 µg/mL) | 2 µM (≈ 4.94 µg/mL) | 2 µM (≈ 4.94 µg/mL) | 2 µM (≈ 4.94 µg/mL) | 90.9% | 90.2% | 58% | 5.59% | 2.49% | 1.36% | 2 µM (≈ 4.94 µg/mL) | 2 µM (≈ 4.94 µg/mL) | 2 µM (≈ 4.94 µg/mL) | 2 µM (≈ 4.94 µg/mL) | 2 µM (≈ 4.94 µg/mL) | 1 µM (≈ 2.47 µg/mL) | 2 µM (≈ 4.94 µg/mL) | 2 µM (≈ 4.94 µg/mL) | MIC [15]: 2 µM (≈ 4.94 µg/mL); MIC [16]: 2 µM (≈ 4.94 µg/mL); MIC [17]: 2 µM (≈ 4.94 µg/mL); MIC [18]: 2 µM (≈ 4.94 µg/mL); MIC [19]: 2 µM (≈ 4.94 µg/mL); MIC [20]: 2 µM (≈ 4.94 µg/mL); MIC [21]: 2 µM (≈ 4.94 µg/mL); MIC [22]: 2 µM (≈ 4.94 µg/mL); MIC [23]: 2 µM (≈ 4.94 µg/mL); MIC [24]: 2 µM (≈ 4.94 µg/mL); MIC [25]: 2 µM (≈ 4.94 µg/mL)
